Tests used:
[1] = target: Human sodium/glucose co-transporter type 2 (SGLT2) (Homo sapiens (Human), UniProt P31639); assay: In vitro human SGLT2 inhibition assay (14C-AMG uptake); format: cell-based; settings: HEK293 cells expressing human HA-SGLT2, 14C-AMG uptake
Description: Human sodium/glucose co-transporter type 2 (SGLT2; accession number P31639; GI:400337) was cloned into pIRESpuro2 vector for mammalian expression (construct: HA-SGLT2-pIRESpuro2).
HEK293 cells were transfected with the human HA-SGLT2-pIRESpuro2 vector and the bulk stable cell line was selected in presence of 0.5 μg/mL of puromycin. Human HA-SGLT2 cells were maintained in DMEM media containing 10% FBS, 1% GPS and 0.5 μg/mL of puromycin.
The HEK293 cells expressing the human HA-SGLT2 were seeded in 384 well plates (30,000 cells/well) in DMEM media containing 10% FBS, 1% GPS and 0.5 μg/mL of puromycin, then incubated overnight at 37 C, 5% CO2. Cells were then washed with uptake buffer (140 mM NaCl, 2 mM KCl, 1 mM CaCl2, 1 mM MgCl2, 10 mM HEPES, 5 mM Tris, 1 mg/mL bovine serum albumin (BSA), pH 7.3). Twenty microliters of uptake buffer with or without testing compounds were added to the cells. Then, 20 microliters of uptake buffer containing ^14C-AMG (100 nCi) were added to the cells. The cell plates were incubated at 37° C., 5% CO2 for 1-2 hours. After washing the cells with uptake buffer, scintillation fluid was added (40 microliters/well) and ^14C-AMG uptake was measured by counting radioactivity using a scintillation coulter (TopCoulter NXT; Packard Instruments).

[2] = target: Human sodium/glucose co-transporter type 1 (SGLT1) (Homo sapiens (Human), UniProt P13866); assay: In vitro human SGLT1 inhibition assay (14C-AMG uptake); format: cell-based; settings: HEK293 cells expressing human HA-SGLT1, 14C-AMG uptake
Chain of Human sodium/glucose co-transporter type 1 (SGLT1) (P13866 whole entry): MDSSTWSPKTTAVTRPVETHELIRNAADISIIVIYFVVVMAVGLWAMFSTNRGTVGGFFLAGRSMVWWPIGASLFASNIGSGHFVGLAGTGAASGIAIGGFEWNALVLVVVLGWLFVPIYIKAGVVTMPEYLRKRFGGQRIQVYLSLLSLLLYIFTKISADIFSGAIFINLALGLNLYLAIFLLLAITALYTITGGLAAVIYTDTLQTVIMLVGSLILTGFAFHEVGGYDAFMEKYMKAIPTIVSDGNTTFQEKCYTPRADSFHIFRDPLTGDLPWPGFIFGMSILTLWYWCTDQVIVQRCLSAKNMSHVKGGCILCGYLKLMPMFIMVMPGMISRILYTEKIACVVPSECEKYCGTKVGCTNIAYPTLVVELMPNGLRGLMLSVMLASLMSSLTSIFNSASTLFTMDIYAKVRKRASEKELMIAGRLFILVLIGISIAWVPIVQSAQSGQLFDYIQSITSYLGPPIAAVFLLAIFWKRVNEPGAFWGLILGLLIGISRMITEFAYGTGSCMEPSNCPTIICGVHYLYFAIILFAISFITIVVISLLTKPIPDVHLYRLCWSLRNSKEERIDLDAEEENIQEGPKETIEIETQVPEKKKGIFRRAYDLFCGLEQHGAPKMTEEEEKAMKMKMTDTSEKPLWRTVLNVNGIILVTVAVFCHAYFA
Description: Human sodium/glucose co-transporter type 1 (SGLT1; accession number NP_000334; GI: 4507031) was cloned into pIRESpuro2 vector for mammalian expression (construct: HA-SGLT1-pIRESpuro2).
HEK293 cells were transfected with the human HA-SGLT1-pIRESpuro2 vector and the bulk stable cell line was selected in presence of 0.5 μg/mL of puromycin. Human HA-SGLT1 cells were maintained in DMEM media containing 10% FBS, 1% GPS and 0.5 μg/mL of puromycin.
The HEK293 cells expressing the human HA-SGLT1 were seeded in 384 well plates (30,000 cells/well) in DMEM media containing 10% FBS, 1% GPS and 0.5 μg/mL of puromycin, then incubated overnight at 37 C, 5% CO2. Cells were then washed with uptake buffer (140 mM NaCl, 2 mM KCl, 1 mM CaCl2, 1 mM MgCl2, 10 mM HEPES, 5 mM Tris, 1 mg/mL bovine serum albumin (BSA), pH 7.3). Twenty microliters of uptake buffer with or without testing compounds were added to the cells. Then, 20 microliters of uptake buffer containing ^14C-AMG (100 nCi) were also added to cells. The cell plates were incubated at 37° C., 5% CO2 for 1-2 hours. After washing the cells with uptake buffer, scintillation fluid was added (40 microliters/well) and ^14C-AMG uptake was measured by counting radioactivity using a scintillation coulter (TopCoulter NXT; Packard Instruments).

Chain of Human sodium/glucose co-transporter type 2 (SGLT2) (P31639 whole entry): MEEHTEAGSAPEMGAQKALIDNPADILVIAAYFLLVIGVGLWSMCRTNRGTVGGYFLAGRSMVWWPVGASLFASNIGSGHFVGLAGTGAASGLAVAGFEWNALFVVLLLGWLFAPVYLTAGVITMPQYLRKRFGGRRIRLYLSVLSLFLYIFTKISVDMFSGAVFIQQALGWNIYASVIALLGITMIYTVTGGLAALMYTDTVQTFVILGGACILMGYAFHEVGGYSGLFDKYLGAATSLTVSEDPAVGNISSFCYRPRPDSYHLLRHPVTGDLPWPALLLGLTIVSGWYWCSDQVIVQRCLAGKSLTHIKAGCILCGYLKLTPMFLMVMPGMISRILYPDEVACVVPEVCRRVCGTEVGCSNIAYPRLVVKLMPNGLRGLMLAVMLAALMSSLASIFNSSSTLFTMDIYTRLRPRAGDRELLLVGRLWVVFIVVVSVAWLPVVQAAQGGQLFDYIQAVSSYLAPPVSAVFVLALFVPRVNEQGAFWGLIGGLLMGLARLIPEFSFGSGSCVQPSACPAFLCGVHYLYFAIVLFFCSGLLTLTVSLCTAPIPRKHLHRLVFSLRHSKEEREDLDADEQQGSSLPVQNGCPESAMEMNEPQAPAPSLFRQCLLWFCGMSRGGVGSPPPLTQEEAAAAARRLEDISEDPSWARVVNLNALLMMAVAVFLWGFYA

| Structure (SMILES) | IC50 [1] | IC50 [2] |
| --- | --- | --- |
| CS[C@H]1O[C@@H](c2ccc(C)c(Cc3ccc(CCCCNC(=O)NC(CO)(CO)CO)cc3)c2)[C@H](O)[C@@H](O)[C@@H]1O [1-(1,3-dihydroxy-2-(hydroxymethyl)propan-2-yl)-3-(4-(4-(2-methyl-5-((2S,3R,4R,5S,6R)-3,4,5-trihydroxy-6-(methylthio)tetrahydro-2H-pyran-2-yl)benzyl)phenyl)butyl)urea] | < 10 nM | < 10 nM |
| CS[C@H]1O[C@@H](c2ccc(C)c(Cc3ccc(OCCNC(=O)NC(C)(C)CO)cc3)c2)[C@H](O)[C@@H](O)[C@@H]1O [1-(1-hydroxy-2-methylpropan-2-yl)-3-(2-(4-(2-methyl-5-((2S,3R,4R,5S,6R)-3,4,5-trihydroxy-6-(methylthio)tetrahydro-2H-pyran-2-yl)benzyl)phenoxy)ethyl)urea] | – | < 100 nM |
| CS[C@H]1O[C@@H](c2ccc(C)c(Cc3ccc(CCCCNC(=O)NC(C)(C)CO)cc3)c2)[C@H](O)[C@@H](O)[C@@H]1O [1-(1-hydroxy-2-methylpropan-2-yl)-3-(4-(4-(2-methyl-5-((2S,3R,4R,5S,6R)-3,4,5-trihydroxy-6-(methylthio)tetrahydro-2H-pyran-2-yl)benzyl)phenyl)butyl)urea] | < 10 nM | < 100 nM |
| CS[C@H]1O[C@@H](c2ccc(C)c(Cc3ccc(CCCCCNC(=O)NC(C)(C)CO)cc3)c2)[C@H](O)[C@@H](O)[C@@H]1O [1-(1-hydroxy-2-methylpropan-2-yl)-3-(5-(4-(2-methyl-5-((2S,3R,4R,5S,6R)-3,4,5-trihydroxy-6-(methylthio)tetrahydro-2H-pyran-2-yl)benzyl)phenyl)pentyl)urea] | < 10 nM | < 100 nM |
| CS[C@H]1O[C@@H](c2ccc(Cl)c(Cc3ccc(OCCNC(=O)NC(C)(C)CO)cc3)c2)[C@H](O)[C@@H](O)[C@@H]1O [1-(2-(4-(2-chloro-5-((2S,3R,4R,5S,6R)-3,4,5-trihydroxy-6-(methylthio)tetrahydro-2H-pyran-2-yl)benzyl)phenoxy)ethyl)-3-(1-hydroxy-2-methylpropan-2-yl)urea] | < 10 nM | < 10 nM |
| CS[C@H]1O[C@@H](c2ccc(Cl)c(Cc3ccc(OCCNC(=N)N)cc3)c2)[C@H](O)[C@@H](O)[C@@H]1O [1-(2-(4-(2-chloro-5-((2S,3R,4R,5S,6R)-3,4,5-trihydroxy-6-(methylthio)tetrahydro-2H-pyran-2-yl)benzyl)phenoxy)ethyl)guanidine] | < 10 nM | < 10 nM |
| CS[C@H]1O[C@@H](c2ccc(C)c(Cc3ccc(OCCNC(=N)N)cc3)c2)[C@H](O)[C@@H](O)[C@@H]1O [1-(2-(4-(2-methyl-5-((2S,3R,4R,5S,6R)-3,4,5-trihydroxy-6-(methylthio)tetrahydro-2H-pyran-2-yl)benzyl)phenoxy)ethyl)guanidine] | < 10 nM | < 10 nM |
| CS[C@H]1O[C@@H](c2ccc(Cl)c(Cc3ccc(OCCCNC(=N)N)cc3)c2)[C@H](O)[C@@H](O)[C@@H]1O [1-(3-(4-(2-chloro-5-((2S,3R,4R,5S,6R)-3,4,5-trihydroxy-6-(methylthio)tetrahydro-2H-pyran-2-yl)benzyl)phenoxy)propyl)guanidine] | < 10 nM | < 10 nM |
| CS[C@H]1O[C@@H](c2ccc(C)c(Cc3ccc(OCCCC(=O)NC4(C(N)=O)CCCC4)cc3)c2)[C@H](O)[C@@H](O)[C@@H]1O [1-(4-(4-(2-methyl-5-((2S,3R,4R,5S,6R)-3,4,5-trihydroxy-6-(methylthio)tetrahydro-2H-pyran-2-yl)benzyl)phenoxy)butanamido)cyclopentanecarboxamide] | < 10 nM | < 10 nM |
| CS[C@H]1O[C@@H](c2ccc(C)c(Cc3ccc(CCCCNC(=N)N)cc3)c2)[C@H](O)[C@@H](O)[C@@H]1O [1-(4-(4-(2-methyl-5-((2S,3R,4R,5S,6R)-3,4,5-trihydroxy-6-(methylthio)tetrahydro-2H-pyran-2-yl)benzyl)phenyl)butyl)guanidine] | < 10 nM | < 10 nM |
| CS[C@H]1O[C@@H](c2ccc(C)c(Cc3ccc(OCCNC4(C(N)=O)CCCC4)cc3)c2)[C@H](O)[C@@H](O)[C@@H]1O [1-((2-(4-(2-methyl-5-((2S,3R,4R,5S,6R)-3,4,5-trihydroxy-6-(methylthio)tetrahydro-2H-pyran-2-yl)benzyl)phenoxy)ethyl)amino)cyclopentanecarboxamide] | < 10 nM | < 100 nM |
| CS[C@H]1OC(c2ccc(C)c(Cc3ccc(OCCCNC4(C(N)=O)CCCC4)cc3)c2)[C@H](O)[C@@H](O)[C@@H]1O (stereo partly drawn) [1-((3-(4-(2-methyl-5-((3R,4R,5S,6R)-3,4,5-trihydroxy-6-(methylthio)tetrahydro-2H-pyran-2-yl)benzyl)phenoxy)propyl)amino)cyclopentanecarboxamide] | < 10 nM | < 10 nM |
| CS[C@H]1O[C@@H](c2ccc(C)c(Cc3ccc(CCCCNC4(C(N)=O)CCCC4)cc3)c2)[C@H](O)[C@@H](O)[C@@H]1O [1-((4-(4-(2-methyl-5-((2S,3R,4R,5S,6R)-3,4,5-trihydroxy-6-(methylthio)tetrahydro-2H-pyran-2-yl)benzyl)phenyl)butyl)amino)cyclopentanecarboxamide] | < 10 nM | < 100 nM |
| CS[C@H]1O[C@@H](c2ccc(C)c(Cc3ccc(OCC(=O)NCC(C)(C)C(N)=O)cc3)c2)[C@H](O)[C@@H](O)[C@@H]1O [2,2-dimethyl-3-(2-(4-(2-methyl-5-((2S,3R,4R,5S,6R)-3,4,5-trihydroxy-6-(methylthio)tetrahydro-2H-pyran-2-yl)benzyl)phenoxy)acetamido)propanamide] | < 10 nM | < 100 nM |
| CS[C@H]1OC(c2ccc(C)c(Cc3ccc(OCCNC(=O)NCC(C)(C)C(N)=O)cc3)c2)[C@H](O)[C@@H](O)[C@@H]1O (stereo partly drawn) [2,2-dimethyl-3-(3-(2-(4-(2-methyl-5-((3R,4R,5S,6R)-3,4,5-trihydroxy-6-(methylthio)tetrahydro-2H-pyran-2-yl)benzyl)phenoxy)ethyl)ureido)propanamide] | < 10 nM | < 10 nM |
| CS[C@H]1O[C@@H](c2ccc(C)c(Cc3ccc(CCCC(=O)NCC(C)(C)C(=O)O)cc3)c2)[C@H](O)[C@@H](O)[C@@H]1O [2,2-dimethyl-3-(4-(4-(2-methyl-5-((2S,3R,4R,5S,6R)-3,4,5-trihydroxy-6-(methylthio)tetrahydro-2H-pyran-2-yl)benzyl)phenyl)butanamido)propanoic acid] | < 10 nM | < 100 nM |
| CS[C@H]1O[C@@H](c2ccc(C)c(Cc3ccc(OCCNCC(C)(C)C(N)=O)cc3)c2)[C@H](O)[C@@H](O)[C@@H]1O [2,2-dimethyl-3-((2-(4-(2-methyl-5-((2S,3R,4R,5S,6R)-3,4,5-trihydroxy-6-(methylthio)tetrahydro-2H-pyran-2-yl)benzyl)phenoxy)ethyl)amino)propanamide] | < 10 nM | < 10 nM |
| CS[C@H]1O[C@@H](c2ccc(C)c(Cc3ccc(OCCCNCC(C)(C)C(N)=O)cc3)c2)[C@H](O)[C@@H](O)[C@@H]1O [2,2-dimethyl-3-((3-(4-(2-methyl-5-((2S,3R,4R,5S,6R)-3,4,5-trihydroxy-6-(methylthio)tetrahydro-2H-pyran-2-yl)benzyl)phenoxy)propyl)-amino)propanamide] | < 10 nM | < 10 nM |
| CS[C@H]1O[C@@H](c2ccc(C)c(Cc3ccc(CCCCNCC(C)(C)C(=O)N4CCN(C)CC4)cc3)c2)[C@H](O)[C@@H](O)[C@@H]1O [2,2-dimethyl-3-((4-(4-(2-methyl-5-((2S,3R,4R,5S,6R)-3,4,5-trihydroxy-6-(methylthio)tetrahydro-2H-pyran-2-yl)benzyl)phenyl)butyl)amino)-1-(4-methylpiperazin-1-yl)propan-1-one] | < 10 nM | < 10 nM |

— patent US9688710B2, “Inhibitors of sodium glucose cotransporter 1” (LEXICON PHARMACEUTICALS, INC., priority 2012, dated 2017)
